From article PMC9545004, “Transglutaminase 2 affinity and enzyme‐substrate intermediate stability as determining factors for T‐cell responses to gluten peptides in celiac disease” (European Journal of Immunology, 2022)
No end group written: not given here. *: point of attachment. FITC = O=C1OC2(c3ccc(O)cc3Oc3cc(O)ccc32)c2ccc(NC(=S)*)cc21; Ahx = NCCCCCC(=O)O

T1: Recombinant human TG2 (Homo sapiens, UniProt P21980)
T1 construct: His-tag (C); made in house; host or cells: Sf+ express insect cells (pACAB3 vector)
T1 sequence (P21980 1-687): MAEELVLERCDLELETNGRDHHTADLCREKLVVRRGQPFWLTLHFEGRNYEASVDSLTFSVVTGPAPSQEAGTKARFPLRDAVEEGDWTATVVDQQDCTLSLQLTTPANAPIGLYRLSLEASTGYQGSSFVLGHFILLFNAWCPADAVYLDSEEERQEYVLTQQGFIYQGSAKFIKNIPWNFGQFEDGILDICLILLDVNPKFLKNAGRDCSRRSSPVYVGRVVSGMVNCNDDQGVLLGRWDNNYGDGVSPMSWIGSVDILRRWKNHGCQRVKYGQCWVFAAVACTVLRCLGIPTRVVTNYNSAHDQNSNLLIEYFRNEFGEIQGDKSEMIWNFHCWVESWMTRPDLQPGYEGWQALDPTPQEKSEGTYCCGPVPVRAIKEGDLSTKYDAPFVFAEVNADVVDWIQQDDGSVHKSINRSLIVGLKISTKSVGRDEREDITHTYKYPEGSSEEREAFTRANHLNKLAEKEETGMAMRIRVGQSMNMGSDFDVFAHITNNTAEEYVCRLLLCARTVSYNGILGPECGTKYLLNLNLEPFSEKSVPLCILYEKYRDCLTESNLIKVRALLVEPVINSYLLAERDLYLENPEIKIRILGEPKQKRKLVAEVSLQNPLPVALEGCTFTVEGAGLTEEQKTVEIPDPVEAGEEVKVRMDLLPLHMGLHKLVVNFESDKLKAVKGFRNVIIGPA

T2: Recombinant human transglutaminase 2 (human, UniProt P21980 1-687)
T2 construct: human transglutaminase 2 (TGM2), cloned into the pACAB3 vector; Used enzymatically active with CaCl2; also called TG2; recombinant TG2
T2 sequence (looked up): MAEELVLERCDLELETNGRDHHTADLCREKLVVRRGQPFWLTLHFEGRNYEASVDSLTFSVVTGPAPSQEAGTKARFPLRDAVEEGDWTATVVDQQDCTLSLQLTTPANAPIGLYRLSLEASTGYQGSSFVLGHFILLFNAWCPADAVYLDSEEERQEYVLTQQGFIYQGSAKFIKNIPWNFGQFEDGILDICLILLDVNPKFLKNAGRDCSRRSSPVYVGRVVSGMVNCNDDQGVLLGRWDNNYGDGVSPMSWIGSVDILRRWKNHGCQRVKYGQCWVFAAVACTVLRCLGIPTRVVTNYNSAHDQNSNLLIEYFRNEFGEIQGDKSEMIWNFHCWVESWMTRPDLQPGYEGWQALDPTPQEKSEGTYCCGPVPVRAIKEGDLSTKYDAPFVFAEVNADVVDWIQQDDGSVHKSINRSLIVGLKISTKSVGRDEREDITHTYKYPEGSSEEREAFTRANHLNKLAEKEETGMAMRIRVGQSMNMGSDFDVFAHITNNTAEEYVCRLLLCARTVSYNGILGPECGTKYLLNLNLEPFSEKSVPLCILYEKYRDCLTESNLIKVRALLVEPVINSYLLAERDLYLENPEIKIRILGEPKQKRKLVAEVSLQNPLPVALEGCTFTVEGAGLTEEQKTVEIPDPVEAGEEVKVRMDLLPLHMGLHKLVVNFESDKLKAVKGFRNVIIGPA


Legend:
Recombinant human TG2 = target: T1, Recombinant human TG2; assay: TG2 enzyme kinetic assay, GDH-coupled ammonia release; assay type: biochemical; conditions: for Km / kcat / kcat/Km: GDH-coupled, MOPS pH 7.2, TG2 50 µg/mL, 37°C, A340; for Km / kcat: mean and SD from three independent experiments
Text: To test the influence of substrate affinity for TG2 on B‐cell uptake, we determined kinetic parameters for gluten peptides harboring the essential TG2 targeted glutamine residue within the DQ2.5‐glia‐α2, DQ2.5‐glia‐ω2, DQ2.5‐glia‐γ1, or DQ2.5‐glia‐γ3 T‐cell epitopes. To directly compare differences in TG2 affinity between the glutamines from the different peptides, we tested 9‐mer peptides harboring only one TG2 targeted glutamine residue.
Recombinant human TG2 with a C‐terminal His‐tag was expressed in Sf+ express insect cells. Briefly, human TGM2 was cloned into the pACAB3 vector, and protein was expressed for 3 days followed by lysis and purification by nickel‐nitrilotriacetic acid affinity chromatography as previously described.
Kinetic parameters for the 9‐mer peptides α2, ω2, γ1, and γ3 were measured using a coupled GDH catalyzed reaction assay performed in microtiter plates as previously described. Here, the following components were used: (1) a 5× stock MOPS buffer consisting of 1 M 3‐(N‐morpholino)propanesulfonic acid pH 7.2, 25 mM CaCl2, 5 mM ETDA, and 50 mM α‐ketoglutarate (Sigma Aldrich) in distilled water; (2) nicotinamide adenine dinucleotide hydrogen (NADH, Sigma–Aldrich); (3) GDH from beef liver (Roche); (4) gluten peptides; (5) recombinant TG2 solved in 1mM EDTA/Tris‐buffered saline. Components 1–4 were mixed in PCR‐strips (Axygen) to give final concentrations of 1x stock buffer, 1 mM NADH, 0.125 U/µL GDH, and various peptide concentrations. The mixture was preincubated in the dark for 15 min, and the reaction was started by the addition of recombinant TG2 (final concentration of 50 µg/mL) followed by transfer to a microtiter plate (Thermo Scientific). Absorbance (340 nm) was measured continuously for 50 min at 37°C using a Victor 3V Multi‐Label Microplate Reader (Perkin Elmer‐Wallac). Initial reaction velocities were calculated from the linear area of the absorbance curves by determining the change in absorbance over time compared to the change from an NADH standard curve. The Michaelis constants (K M) and turnover rates (k cat) were calculated using the k cat equation analysis tool in GraphPad Prism 8.3.0 (GraphPad Software).

[1] = target: T2, Recombinant human transglutaminase 2
[2] = target: T2, Recombinant human transglutaminase 2; assay: flow cytometry on cells; recombinant TG2 (3 µg/mL), 5 µM FITC peptide and 2 mM CaCl2 in RPMI with A20 cells expressing the TG2-specific BCR 679-14-E06, 37°C; stopped with EDTA, cells washed and fixed; cell-bound FITC peptide read as delta MFI against A20 cells with the non-TG2-specific BCR 693-2-F02; conditions: both partners purified

| Molecule | Km (Recombinant human TG2) [µM] | kcat (Recombinant human TG2) [min^–1] | Km of TG2 turnover, GDH-coupled ammonia release assay (formation of the thioester intermediate complex), 37°C, pH 7.2 [1] [mM] | binding result [2] | further results |
| --- | --- | --- | --- | --- | --- |
| Ac‐QP Q QPYPQQ [γ3] | 130 ± 30 | 23.2±1.0 |  |  |  |
| Ac‐QQSFP Q QQR [γ1] | 240 ± 20 | 24.0±0.7 |  |  | kcat/Km (Recombinant human TG2): 100 min^–1/mM; affinity to TG2 (Km), in words (Recombinant human TG2; native 9-mer peptides, compared with the other 9-mers): twofold lower affinity to TG2 |
| PQP Q LPYPQ [α2] | 130 ± 20 | 25.7±0.8 |  |  | kcat/Km (Recombinant human TG2): 197 min^–1/mM |
| PQP Q QPFPW [ω2] | 100 ± 20 | 27.6±1.0 |  |  | kcat/Km (Recombinant human TG2): 276 min^–1/mM |
| PQPQLPYPQ [α2 9-mer gliadin peptide (native, harbouring the DQ2.5-glia-α2 epitope)] |  |  | 0.13 |  |  |
| PQPQQPFPW [ω2 9-mer gliadin peptide (native, harbouring the DQ2.5-glia-ω2 epitope)] |  |  | 0.1 |  |  |
| Ac-QQSFPQQQR |  |  | 0.24 |  |  |
| Ac-QPQQPYPQQ |  |  | 0.13 |  |  |
| {FITC-Ahx}-PQPQLPYPQ (also called FITC-α2; source: synthetic peptide) [FITC-labeled α2 9-mer gliadin peptide (native)] |  |  |  | binds |  |
| {FITC-Ahx}-PQPQQPFPW (also called FITC-ω2; source: synthetic peptide) [FITC-labeled ω2 9-mer gliadin peptide (native)] |  |  |  | binds |  |
| {FITC-Ahx}-QPQQPYPQQ (native 9-mer from γ-gliadin; The unlabelled peptide is N-terminally acetylated; also called FITC-γ3; source: synthetic peptide) [FITC-labeled γ3 9-mer gliadin peptide (native)] |  |  |  | binds |  |
| {FITC-Ahx}-QQSFPQQQR (native 9-mer from γ-gliadin; The unlabelled peptide is N-terminally acetylated; also called FITC-γ1; source: synthetic peptide) [FITC-labeled γ1 9-mer gliadin peptide (native)] |  |  |  | binds |  |
